Laboratory results as given in ChEMBL document CHEMBL5696442, “Discovery of type II inhibitors of TGFβ-activated kinase 1 (TAK1) and mitogen-activated protein kinase kinase kinase kinase 2 (MAP4K2)” (J Med Chem, 2015).
Calls of active or inactive are those of the source. The calls are words filed in the database; no cut-off is given here.

Legend:
[1] = biological target: Serine/threonine-protein kinase PLK3 (Homo sapiens) (UniProt Q9H4B4); assay: Inhibition of PLK3 (unknown origin) at 10 uM by Ambit Kinomescan binding assay
Serine/threonine-protein kinase PLK3 (Homo sapiens), sequence (Q9H4B4 whole entry, looked up): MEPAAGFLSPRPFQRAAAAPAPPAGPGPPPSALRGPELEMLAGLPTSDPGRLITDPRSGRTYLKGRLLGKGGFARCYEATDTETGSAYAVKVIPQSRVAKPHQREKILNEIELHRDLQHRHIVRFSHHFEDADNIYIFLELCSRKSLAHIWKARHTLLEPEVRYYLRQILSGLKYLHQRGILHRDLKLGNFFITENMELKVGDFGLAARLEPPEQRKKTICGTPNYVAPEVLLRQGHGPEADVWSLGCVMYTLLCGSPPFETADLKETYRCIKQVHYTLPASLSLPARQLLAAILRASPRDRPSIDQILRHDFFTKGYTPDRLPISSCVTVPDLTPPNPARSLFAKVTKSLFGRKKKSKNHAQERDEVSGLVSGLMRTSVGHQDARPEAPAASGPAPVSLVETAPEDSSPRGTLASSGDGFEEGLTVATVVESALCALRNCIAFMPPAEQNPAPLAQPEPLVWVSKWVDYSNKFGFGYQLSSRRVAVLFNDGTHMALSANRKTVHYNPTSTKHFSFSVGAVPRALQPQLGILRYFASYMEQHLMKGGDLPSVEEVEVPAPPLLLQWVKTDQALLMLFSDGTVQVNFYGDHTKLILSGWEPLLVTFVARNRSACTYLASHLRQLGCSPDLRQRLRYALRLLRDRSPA

[2] = biological target: STE20-like serine/threonine-protein kinase (Homo sapiens) (UniProt Q9H2G2); assay: Inhibition of SLK Lys1 labeling site in human A-375 cells at 5 uM by KiNativ Profiling analysis relative to control; assay type: cell-based
STE20-like serine/threonine-protein kinase (Homo sapiens), sequence (Q9H2G2 whole entry, looked up): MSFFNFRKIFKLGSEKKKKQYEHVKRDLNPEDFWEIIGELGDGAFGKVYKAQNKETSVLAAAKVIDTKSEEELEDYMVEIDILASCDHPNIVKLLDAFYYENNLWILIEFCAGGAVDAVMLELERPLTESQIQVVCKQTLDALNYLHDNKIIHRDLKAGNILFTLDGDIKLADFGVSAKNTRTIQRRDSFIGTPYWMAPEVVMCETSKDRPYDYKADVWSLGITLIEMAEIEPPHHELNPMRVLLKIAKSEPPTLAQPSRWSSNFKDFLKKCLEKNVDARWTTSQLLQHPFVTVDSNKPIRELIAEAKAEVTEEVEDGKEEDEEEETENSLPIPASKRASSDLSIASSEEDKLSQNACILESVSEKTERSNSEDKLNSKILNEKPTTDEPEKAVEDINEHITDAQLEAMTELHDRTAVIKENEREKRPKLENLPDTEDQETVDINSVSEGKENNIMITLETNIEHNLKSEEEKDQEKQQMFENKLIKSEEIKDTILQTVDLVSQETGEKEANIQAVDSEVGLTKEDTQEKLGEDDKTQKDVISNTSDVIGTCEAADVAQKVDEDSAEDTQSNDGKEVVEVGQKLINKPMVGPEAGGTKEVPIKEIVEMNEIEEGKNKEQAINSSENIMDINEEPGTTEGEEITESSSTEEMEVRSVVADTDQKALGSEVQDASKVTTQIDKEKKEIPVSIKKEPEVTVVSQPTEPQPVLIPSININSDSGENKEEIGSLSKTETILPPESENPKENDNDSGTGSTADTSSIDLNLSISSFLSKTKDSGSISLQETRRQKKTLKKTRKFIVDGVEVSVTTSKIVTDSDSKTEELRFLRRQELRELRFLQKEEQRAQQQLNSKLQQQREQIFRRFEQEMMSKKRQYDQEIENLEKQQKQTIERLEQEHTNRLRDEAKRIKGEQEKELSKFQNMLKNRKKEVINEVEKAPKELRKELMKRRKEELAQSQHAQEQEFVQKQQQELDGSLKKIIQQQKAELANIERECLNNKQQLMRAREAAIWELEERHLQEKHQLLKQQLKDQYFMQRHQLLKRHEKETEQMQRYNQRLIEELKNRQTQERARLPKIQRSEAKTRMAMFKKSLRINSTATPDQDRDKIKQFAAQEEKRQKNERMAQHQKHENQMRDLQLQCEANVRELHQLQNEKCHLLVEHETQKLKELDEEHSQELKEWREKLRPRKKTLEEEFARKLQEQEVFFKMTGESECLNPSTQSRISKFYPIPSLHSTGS

[3] = biological target: T1, Dual specificity mitogen-activated protein kinase kinase 6 (Homo sapiens) (UniProt P52564); assay: Inhibition of MAP2K6 Lys2 labeling site in human A-375 cells at 0.05 uM by KiNativ Profiling analysis relative to control; assay type: cell-based
T1 sequence (whole entry): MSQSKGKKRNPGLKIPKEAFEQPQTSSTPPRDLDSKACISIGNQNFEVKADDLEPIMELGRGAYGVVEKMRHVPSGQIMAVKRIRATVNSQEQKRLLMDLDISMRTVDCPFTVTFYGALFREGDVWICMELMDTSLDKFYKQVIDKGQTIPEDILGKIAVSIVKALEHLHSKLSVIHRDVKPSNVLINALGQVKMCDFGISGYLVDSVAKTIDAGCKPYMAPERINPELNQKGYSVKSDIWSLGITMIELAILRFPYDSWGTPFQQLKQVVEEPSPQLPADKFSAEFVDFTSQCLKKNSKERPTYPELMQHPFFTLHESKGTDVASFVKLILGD

[4] = biological target: Mast/stem cell growth factor receptor Kit (Homo sapiens) (UniProt P10721); assay: Inhibition of KIT (unknown origin) at 10 uM by Ambit Kinomescan binding assay relative to control
[5] = biological target: T2, Phosphatidylinositol 4,5-bisphosphate 3-kinase catalytic subunit delta isoform (Homo sapiens) (UniProt O00329); assay: Inhibition of PIK3CD (unknown origin) at 10 uM by Ambit Kinomescan binding assay
T2 sequence (whole entry): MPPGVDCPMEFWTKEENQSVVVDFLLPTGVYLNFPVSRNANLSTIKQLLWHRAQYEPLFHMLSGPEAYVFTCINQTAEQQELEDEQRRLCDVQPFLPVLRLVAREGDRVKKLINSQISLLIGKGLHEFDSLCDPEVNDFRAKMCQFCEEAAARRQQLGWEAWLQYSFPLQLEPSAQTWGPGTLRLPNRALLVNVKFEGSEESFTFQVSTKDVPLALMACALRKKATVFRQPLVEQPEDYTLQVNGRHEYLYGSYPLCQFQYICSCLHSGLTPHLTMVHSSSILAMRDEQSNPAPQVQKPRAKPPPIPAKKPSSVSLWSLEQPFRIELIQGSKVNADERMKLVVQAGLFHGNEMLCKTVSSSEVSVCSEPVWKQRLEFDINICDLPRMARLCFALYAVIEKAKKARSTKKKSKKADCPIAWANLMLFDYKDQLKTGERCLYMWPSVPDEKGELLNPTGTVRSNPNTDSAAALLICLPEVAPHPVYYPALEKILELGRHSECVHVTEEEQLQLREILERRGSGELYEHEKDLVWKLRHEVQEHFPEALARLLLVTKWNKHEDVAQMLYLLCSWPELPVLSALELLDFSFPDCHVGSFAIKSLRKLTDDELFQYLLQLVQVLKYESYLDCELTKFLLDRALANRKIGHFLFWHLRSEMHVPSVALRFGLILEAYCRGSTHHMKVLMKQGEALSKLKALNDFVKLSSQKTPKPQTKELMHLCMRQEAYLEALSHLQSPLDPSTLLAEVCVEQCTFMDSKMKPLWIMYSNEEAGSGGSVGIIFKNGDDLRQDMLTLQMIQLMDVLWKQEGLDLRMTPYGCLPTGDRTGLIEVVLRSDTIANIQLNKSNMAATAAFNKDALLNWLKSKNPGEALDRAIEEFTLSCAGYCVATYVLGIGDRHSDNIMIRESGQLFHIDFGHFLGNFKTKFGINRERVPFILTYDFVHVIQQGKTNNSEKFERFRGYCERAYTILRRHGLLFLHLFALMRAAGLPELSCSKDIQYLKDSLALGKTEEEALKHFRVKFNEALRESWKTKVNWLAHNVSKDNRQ

[6] = system: Epidermal growth factor receptor (Homo sapiens), P00533 [UNDEFINED MUTATION]; assay: Inhibition of EGFR S752-I759del mutant (unknown origin) at 10 uM by Ambit Kinomescan binding assay relative to control
Epidermal growth factor receptor (Homo sapiens), P00533 [UNDEFINED MUTATION], sequence (P00533 whole entry, looked up, stated change not applied): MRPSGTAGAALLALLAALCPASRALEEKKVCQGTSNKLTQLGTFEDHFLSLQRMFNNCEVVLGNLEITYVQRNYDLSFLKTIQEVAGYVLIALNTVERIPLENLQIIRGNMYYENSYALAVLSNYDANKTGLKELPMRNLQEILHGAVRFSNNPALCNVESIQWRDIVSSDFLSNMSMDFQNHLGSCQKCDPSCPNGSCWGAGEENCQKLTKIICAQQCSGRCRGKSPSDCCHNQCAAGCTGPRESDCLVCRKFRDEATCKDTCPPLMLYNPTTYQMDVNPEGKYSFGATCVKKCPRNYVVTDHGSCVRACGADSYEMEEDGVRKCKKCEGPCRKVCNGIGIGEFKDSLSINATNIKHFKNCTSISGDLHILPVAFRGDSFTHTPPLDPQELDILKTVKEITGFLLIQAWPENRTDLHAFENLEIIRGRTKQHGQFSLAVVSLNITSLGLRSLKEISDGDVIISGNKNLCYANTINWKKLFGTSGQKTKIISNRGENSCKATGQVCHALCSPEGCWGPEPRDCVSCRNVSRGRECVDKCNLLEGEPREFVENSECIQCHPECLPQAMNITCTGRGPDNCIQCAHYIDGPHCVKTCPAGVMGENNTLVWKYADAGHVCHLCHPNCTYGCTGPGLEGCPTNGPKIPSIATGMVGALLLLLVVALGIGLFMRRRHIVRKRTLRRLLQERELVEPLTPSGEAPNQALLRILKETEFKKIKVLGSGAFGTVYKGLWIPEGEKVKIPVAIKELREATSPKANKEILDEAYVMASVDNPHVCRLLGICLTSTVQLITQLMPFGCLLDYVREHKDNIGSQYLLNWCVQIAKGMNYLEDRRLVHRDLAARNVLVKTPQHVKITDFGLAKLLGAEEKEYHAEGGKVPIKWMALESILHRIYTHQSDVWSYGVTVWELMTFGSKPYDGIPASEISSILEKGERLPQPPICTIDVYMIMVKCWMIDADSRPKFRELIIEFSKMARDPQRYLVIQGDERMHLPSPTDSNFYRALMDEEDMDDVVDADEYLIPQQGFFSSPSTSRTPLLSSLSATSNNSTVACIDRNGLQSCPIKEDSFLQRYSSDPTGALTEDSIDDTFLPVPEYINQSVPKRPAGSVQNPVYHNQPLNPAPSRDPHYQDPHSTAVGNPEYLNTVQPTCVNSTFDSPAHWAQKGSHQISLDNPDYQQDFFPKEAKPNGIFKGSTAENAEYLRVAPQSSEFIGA

[7] = biological target: Diacylglycerol kinase alpha (Homo sapiens) (UniProt P23743); assay: Inhibition of DGKA ATP labeling site harbouring in human A-375 cells at 5 uM by KiNativ Profiling analysis relative to control; assay type: cell-based
[8] = biological target: RAF proto-oncogene serine/threonine-protein kinase (Homo sapiens, UniProt P04049); assay: Inhibition of RAF1 (unknown origin) at 1 uM by Ambit Kinomescan binding assay relative to control
RAF proto-oncogene serine/threonine-protein kinase, sequence (P04049 whole entry): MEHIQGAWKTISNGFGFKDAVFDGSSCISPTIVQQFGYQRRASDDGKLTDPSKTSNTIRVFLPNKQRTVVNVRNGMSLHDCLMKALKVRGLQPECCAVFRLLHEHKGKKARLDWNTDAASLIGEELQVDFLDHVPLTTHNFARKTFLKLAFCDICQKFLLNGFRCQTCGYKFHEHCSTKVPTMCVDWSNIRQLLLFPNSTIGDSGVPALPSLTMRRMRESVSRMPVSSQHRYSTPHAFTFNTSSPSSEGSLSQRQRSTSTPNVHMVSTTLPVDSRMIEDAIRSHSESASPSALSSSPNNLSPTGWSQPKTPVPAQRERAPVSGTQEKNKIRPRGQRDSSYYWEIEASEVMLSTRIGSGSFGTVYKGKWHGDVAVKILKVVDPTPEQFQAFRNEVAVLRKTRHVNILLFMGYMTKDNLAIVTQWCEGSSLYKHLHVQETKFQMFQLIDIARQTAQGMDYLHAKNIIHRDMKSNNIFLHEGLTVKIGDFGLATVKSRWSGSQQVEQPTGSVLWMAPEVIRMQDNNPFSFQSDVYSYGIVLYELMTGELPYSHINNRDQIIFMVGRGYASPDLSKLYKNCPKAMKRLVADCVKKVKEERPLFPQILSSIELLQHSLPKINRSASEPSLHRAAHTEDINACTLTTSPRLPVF

[9] = biological target: DNA-PK/Ku70/Ku85 (Homo sapiens) (UniProt P78527+P12956+P13010); assay: Inhibition of DNAPK ATP labeling site harbouring KGGSWIQEINVAEK in human A-375 cells at 0.05 uM by KiNativ Profiling analysis relative to control; assay type: cell-based
[10] = biological target: Mitogen-activated protein kinase kinase kinase 12 (Homo sapiens) (UniProt Q12852); assay: Inhibition of DLK (unknown origin) at 1 uM by Ambit Kinomescan binding assay relative to control
[11] = biological target: Wee1-like protein kinase (Homo sapiens) (UniProt P30291); assay: Inhibition of Wee1 Lys2 labeling site in human Huh-7 cell lysate at 1 uM by KiNativ Profiling analysis relative to control; assay type: subcellular
Wee1-like protein kinase (Homo sapiens), sequence (P30291 whole entry, looked up, the tested form may be a part): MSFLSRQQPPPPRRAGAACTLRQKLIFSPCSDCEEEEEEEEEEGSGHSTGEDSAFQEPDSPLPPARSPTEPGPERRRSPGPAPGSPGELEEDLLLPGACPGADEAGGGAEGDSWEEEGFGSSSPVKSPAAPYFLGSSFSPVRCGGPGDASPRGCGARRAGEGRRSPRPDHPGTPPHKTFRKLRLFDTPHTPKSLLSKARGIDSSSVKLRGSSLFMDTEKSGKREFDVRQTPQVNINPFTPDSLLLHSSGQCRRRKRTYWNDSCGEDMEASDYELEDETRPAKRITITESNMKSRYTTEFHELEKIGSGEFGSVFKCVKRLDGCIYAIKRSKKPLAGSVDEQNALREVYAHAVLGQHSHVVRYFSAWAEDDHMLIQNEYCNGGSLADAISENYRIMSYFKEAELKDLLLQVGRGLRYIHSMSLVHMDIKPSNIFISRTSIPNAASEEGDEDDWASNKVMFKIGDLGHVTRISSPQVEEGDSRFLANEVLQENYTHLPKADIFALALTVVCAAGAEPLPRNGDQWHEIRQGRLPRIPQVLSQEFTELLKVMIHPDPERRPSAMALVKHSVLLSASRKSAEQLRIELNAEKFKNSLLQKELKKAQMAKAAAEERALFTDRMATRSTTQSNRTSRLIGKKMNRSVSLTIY

[12] = biological target: T3, Scaffold protein ILK (Homo sapiens) (UniProt Q13418); assay: Inhibition of ILK Protein Kinase Domain labeling site in human Huh-7 cell lysate at 1 uM by KiNativ Profiling analysis relative to control; assay type: subcellular
T3 sequence (whole entry): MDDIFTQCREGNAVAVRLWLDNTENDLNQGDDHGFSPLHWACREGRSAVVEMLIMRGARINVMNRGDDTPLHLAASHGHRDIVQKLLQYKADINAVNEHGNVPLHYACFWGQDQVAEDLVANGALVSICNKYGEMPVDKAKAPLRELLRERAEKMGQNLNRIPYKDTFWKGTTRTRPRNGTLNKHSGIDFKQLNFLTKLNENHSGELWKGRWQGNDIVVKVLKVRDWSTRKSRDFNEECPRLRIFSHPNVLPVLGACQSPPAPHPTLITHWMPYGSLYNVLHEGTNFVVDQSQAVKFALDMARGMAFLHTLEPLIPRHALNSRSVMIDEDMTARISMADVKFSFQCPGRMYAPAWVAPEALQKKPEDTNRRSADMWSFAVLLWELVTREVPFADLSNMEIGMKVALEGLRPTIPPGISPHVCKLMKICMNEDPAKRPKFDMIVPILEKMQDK

[13] = biological target: Cyclin-dependent kinase 17 (Homo sapiens) (UniProt Q00537); assay: Inhibition of PCTAIRE2 Lys2 labeling site in human Huh-7 cell lysate at 1 uM by KiNativ Profiling analysis relative to control; assay type: subcellular
[14] = biological target: Serine/threonine-protein kinase PLK1 (Homo sapiens) (UniProt P53350); assay: Inhibition of PLK1 Lys1 labeling site harbouring EVFAGKIVPK in human Huh-7 cell lysate at 1 uM by KiNativ Profiling analysis relative to control; assay type: subcellular
Serine/threonine-protein kinase PLK1 (Homo sapiens), sequence (P53350 whole entry): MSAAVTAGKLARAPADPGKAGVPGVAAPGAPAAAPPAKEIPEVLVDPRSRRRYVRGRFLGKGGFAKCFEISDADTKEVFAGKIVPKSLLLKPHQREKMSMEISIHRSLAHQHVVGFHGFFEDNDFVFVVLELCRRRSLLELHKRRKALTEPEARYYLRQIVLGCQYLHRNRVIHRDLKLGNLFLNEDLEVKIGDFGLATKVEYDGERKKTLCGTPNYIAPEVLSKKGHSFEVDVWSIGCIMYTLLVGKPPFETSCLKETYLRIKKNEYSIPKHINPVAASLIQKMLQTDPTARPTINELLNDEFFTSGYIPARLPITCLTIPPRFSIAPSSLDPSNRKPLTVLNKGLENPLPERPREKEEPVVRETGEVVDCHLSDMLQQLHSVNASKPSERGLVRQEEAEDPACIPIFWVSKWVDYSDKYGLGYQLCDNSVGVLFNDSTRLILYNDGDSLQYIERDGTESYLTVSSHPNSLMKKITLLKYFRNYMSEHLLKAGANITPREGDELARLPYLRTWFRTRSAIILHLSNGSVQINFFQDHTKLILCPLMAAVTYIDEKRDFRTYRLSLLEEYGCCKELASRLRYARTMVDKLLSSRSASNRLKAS

Compound: CCN1CCN(Cc2ccc(NC(=O)c3ccc(C)c(Oc4ccnc5[nH]ccc45)c3)cc2C(F)(F)F)CC1
- inhibition [1]: inactive
- inhibition [2]: 34.6%
- inhibition [3]: -8.5%
- inhibition [4]: 0%
- inhibition [5]: inactive
- inhibition [6]: 4.6%

Compound: CCN1CCN(Cc2ccc(NC(=O)c3ccc(C)c(/C=C/c4cnc5[nH]ccc5c4OC)c3)cc2C(F)(F)F)CC1
- inhibition [7]: -1.8%
- inhibition [8]: 7.8%
- inhibition [9]: 17.7%
- inhibition [10]: 74%

Compound: CNc1cc(Oc2cc(C(=O)Nc3cc(N4CCN(C)CC4)cc(C(F)(F)F)c3)ccc2C)ncn1
- inhibition [11]: -4.1%
- inhibition [12]: -2.4%
- inhibition [13]: -2.1%
- inhibition [14]: 1.8%
